One assay addresses T1, human AXL (Homo sapiens, UniProt P30530).
T1 construct: Human AXL (NM_021913.4) were PCR amplified using the primers human AXL forward; expressed in transfected cells
T1 sequence (P30530 26-894): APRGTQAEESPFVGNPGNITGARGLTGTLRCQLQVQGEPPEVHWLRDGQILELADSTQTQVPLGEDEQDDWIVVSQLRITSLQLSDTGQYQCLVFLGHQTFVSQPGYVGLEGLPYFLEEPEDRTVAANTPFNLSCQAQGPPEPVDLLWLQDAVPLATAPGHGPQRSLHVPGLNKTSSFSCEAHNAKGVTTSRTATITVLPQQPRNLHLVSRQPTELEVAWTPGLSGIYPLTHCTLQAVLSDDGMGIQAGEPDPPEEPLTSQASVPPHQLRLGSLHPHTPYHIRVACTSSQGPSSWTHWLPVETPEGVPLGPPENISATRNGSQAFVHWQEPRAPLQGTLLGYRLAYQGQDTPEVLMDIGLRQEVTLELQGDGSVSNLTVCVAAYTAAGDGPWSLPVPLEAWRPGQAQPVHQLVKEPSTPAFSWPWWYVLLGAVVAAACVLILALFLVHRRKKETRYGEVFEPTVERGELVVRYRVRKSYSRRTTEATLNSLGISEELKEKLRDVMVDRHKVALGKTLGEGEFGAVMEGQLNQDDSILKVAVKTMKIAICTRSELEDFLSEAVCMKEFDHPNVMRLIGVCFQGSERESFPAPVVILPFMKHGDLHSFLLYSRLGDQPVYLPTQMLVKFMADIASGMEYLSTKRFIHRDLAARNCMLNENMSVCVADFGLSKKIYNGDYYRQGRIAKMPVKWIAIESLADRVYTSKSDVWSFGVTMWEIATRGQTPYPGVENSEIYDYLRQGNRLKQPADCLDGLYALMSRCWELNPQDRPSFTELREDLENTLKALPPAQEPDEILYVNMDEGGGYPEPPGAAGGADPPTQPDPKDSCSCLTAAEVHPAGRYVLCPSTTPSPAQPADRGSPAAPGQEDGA
Type of assay: cell-based.

Another assay has as its system metastatic breast cancer. The following applies: mouse models of metastatic breast cancer; cited from earlier work.
In assay [1] the test system is Influenza A virus (IAV) (A/WSN/33, H1N1). Type of assay: cell-based.

“Also recorded” adds a separate entry of the source.

Consider `Nc1nc(Nc2ccc3c(c2)CCC(N2CCCC2)CC3)nn1-c1cc2c(nn1)-c1ccccc1CCC2` (stereo not shown) [R428, 1-(6,7-dihydro-5H-benzo[6,7]cyclohepta[1,2-c]pyridazin-3-yl)-N3-(7-(pyrrolidin-1-yl)-6,7,8,9-tetrahydro-5H-benzo[7]annulen-2-yl)-1H-1,2,4-triazole-3,5-diamine], for which the “AXL autophosphorylation stimulated by Gas6” value on human AXL is “block autophosphorylation”. Moreover, in the assay on metastatic breast cancer, the “tumor spread and survival” value is “block tumor spread and prolong survival”. Also, in assay [1], the “IAV replication (NP and NS1 protein expression)” value is listed as “blocked virus infection; also recorded: significantly inhibited influenza A virus infection; also recorded: inhibited IAV replication”; the “time of addition at which R428 inhibits IAV replication” value is given as “before or during the first hour, but not later”.

(Values after US20150252370A1, “USE OF ATX INHIBITORS FOR TREATMENT OR PREVENTION OF INFLUENZA VIRUS A INFECTIONS” (Academia Sinica, priority 2014, published 2015).)
